Test results published in article PMC7320180, “Hydroxamic acid derivatives as HDAC1, HDAC6 and HDAC8 inhibitors with antiproliferative activity in cancer cell lines” (Scientific Reports, 2020).
pIC50: −log10 of the molar value. Where two headings read alike, the source gives them in different places.

Experiments:
HCC1954 cells = test: MTT cytotoxicity test, HCC1954; assay type: cell-based; settings: 3 days
Method: (§1) All compounds were evaluated in triplicate using six points, 1/3 dilutions, with the highest concentration of 50 µM. The triplicate measurements were placed in three different 96-plates, and 1% DMSO was used as a negative control.
(§2) The first sets of […] (GH38, GH18, GH27, FH38, FH18, […] and FH37) were evaluated in different cancer cell lines: HepG2, MCF-7, SH-SY5Y, MIA PaCa-2, and […]. Furthermore, the second series of eight compounds were evaluated using seven cell lines: SH-SY5Y which is a neuroblastoma cell line; HepG2, a hepatocellular carcinoma cell line; MIA PaCa-2, a human pancreatic carcinoma cell line; MCF-7, a breast cancer cell line; HCC1954, a basal-Her2+ breast carcinoma cell line; RCC4-VA, a renal carcinoma cell line with a VHL mutation; and RCC4-VHL, a renal carcinoma cell without the VHL mutation (wild type). The cells used were seeded in 96-well plates and left for 24 h (5% CO2 and 90% humidity, 50000 cells/well) and incubated for 3 days to study the cytotoxicity.

RCC4-VHL cells = test: MTT cytotoxicity test, RCC4-VHL; assay type: cell-based; settings: Homo sapiens, 72 h, 3 days
Method: as §1, §2

MCF-7 cells = test: MTT cytotoxicity test, MCF-7; assay type: cell-based; settings: Homo sapiens, MCF7, 72 h; MTT, 3 days; read-out: IC50 (µM) MCF-7
Method: as §1, §2

MIA PaCa-2 cells = test: MTT cytotoxicity test, MIA PaCa-2; assay type: cell-based; settings: Homo sapiens, MIA PaCa-2, 72 h; MTT, 3 days; read-out: IC50 (µM) MIA PaCa-2
Method: as §1, §2

HepG2 cells = test: MTT cytotoxicity test, HepG2; assay type: cell-based; settings: Homo sapiens, HepG2, 72 h; MTT, 3 days; read-out: IC50 (µM) HepG2
Method: as §1, §2

SH-SY5Y cells = test: MTT cytotoxicity test, SH-SY5Y; assay type: cell-based; settings: Homo sapiens, 72 h, 3 days
Method: as §1, §2

RCC4-VA cells = test: MTT cytotoxicity test, RCC4-VA; assay type: cell-based; settings: 72 h, 3 days
Method: as §1, §2

HDAC6 = target: T1, HDAC6 (Homo sapiens, UniProt Q9UBN7); test: HDAC fluorometric enzymatic inhibition assay, HDAC6; assay type: biochemical
T1 construct: purchased Enzo Life Sciences BML-AK516
T1 sequence (Q9UBN7 1-1215): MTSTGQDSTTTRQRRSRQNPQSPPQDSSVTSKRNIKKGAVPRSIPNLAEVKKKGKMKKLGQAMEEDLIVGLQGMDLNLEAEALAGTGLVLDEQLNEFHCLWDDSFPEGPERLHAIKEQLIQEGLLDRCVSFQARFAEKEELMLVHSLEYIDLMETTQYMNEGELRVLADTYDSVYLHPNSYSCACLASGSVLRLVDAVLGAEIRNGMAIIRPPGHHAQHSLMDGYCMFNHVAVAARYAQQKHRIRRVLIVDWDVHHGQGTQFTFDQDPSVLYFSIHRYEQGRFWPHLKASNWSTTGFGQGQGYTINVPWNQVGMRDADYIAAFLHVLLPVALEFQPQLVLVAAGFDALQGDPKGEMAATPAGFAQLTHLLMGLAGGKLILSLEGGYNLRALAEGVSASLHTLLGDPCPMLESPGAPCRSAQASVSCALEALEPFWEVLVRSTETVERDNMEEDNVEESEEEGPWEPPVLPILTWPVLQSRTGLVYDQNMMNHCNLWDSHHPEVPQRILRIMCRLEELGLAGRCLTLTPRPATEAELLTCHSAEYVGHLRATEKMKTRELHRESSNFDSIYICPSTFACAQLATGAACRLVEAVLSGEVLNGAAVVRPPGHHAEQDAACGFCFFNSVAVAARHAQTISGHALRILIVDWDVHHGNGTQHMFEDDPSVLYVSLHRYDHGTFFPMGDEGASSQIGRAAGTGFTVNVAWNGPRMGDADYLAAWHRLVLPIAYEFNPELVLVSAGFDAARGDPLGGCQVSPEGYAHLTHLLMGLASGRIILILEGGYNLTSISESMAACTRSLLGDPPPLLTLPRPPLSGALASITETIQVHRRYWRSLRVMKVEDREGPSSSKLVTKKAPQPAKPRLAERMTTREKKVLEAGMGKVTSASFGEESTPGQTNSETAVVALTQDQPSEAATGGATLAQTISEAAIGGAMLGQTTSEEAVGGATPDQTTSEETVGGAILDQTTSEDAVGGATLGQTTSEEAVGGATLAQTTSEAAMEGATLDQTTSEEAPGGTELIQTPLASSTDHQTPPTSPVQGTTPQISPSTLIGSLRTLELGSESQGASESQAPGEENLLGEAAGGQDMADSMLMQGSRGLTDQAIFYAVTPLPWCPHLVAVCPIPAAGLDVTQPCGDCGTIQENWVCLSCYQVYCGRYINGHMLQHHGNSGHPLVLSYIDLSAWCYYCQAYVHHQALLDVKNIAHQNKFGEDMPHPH

HDAC1 = target: T2, HDAC1 (Homo sapiens, UniProt Q13547); test: HDAC fluorometric enzymatic inhibition assay, HDAC1; assay type: biochemical
T2 construct: purchased Enzo Life Sciences BML-AK511

HDAC8 = target: T3, HDAC8 (Homo sapiens, UniProt Q9BY41); test: HDAC fluorometric enzymatic inhibition assay, HDAC8; assay type: biochemical
T3 construct: purchased Enzo Life Sciences BML-AK518
T3 sequence (Q9BY41 1-377): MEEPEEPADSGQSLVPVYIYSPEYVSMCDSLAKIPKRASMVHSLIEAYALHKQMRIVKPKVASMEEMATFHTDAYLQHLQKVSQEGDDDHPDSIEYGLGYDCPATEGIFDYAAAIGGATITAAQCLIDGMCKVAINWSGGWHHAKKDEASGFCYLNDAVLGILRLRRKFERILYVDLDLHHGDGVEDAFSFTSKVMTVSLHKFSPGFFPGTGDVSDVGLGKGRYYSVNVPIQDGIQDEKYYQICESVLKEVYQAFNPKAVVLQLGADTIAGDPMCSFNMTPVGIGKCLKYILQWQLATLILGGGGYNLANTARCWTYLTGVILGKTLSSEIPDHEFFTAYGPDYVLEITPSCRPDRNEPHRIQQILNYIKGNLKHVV

cancer cell lines = test: Antiproliferative effect, cell line not stated; assay type: cell-based; settings: second series, seven cancer cell lines
Method: as §1, §2

T2 sequence (Q13547 whole entry): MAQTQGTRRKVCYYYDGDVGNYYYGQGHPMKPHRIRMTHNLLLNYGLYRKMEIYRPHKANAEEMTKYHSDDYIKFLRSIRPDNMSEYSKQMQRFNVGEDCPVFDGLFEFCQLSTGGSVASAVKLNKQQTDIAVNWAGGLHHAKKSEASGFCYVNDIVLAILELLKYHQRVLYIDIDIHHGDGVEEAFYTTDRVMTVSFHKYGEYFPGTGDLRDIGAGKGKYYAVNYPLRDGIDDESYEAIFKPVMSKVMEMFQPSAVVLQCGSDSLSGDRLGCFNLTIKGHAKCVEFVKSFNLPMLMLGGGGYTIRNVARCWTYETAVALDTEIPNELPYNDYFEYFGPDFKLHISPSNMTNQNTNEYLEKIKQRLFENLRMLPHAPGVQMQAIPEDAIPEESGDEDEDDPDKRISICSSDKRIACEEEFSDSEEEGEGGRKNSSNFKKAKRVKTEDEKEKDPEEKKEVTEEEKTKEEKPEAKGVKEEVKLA

IC50 (HDAC6) [nM] | selectivity for HDAC6 (HDAC6; HDAC6 compared with HDAC8 and HDAC1) [fold] | IC50 (HDAC1; read-out: IC50 (nM) HDAC1) [nM] | pIC50 (HDAC1; read-out: IC50 HDAC1) | IC50 (HDAC8; read-out: IC50 (nM) HDAC8) [nM] | pIC50 (HDAC8; read-out: IC50 HDAC8) | Compound | IC50 (HCC1954 cells; Homo sapiens, HCC1954, 72 h) [µM] | IC50 (RCC4-VHL cells) [µM] | IC50 (MCF-7 cells) [µM] | IC50 (MIA PaCa-2 cells) [µM] | IC50 (HepG2 cells) [µM] | IC50 (SH-SY5Y cells) [µM] | IC50 (RCC4-VA cells) [µM] | IC50 (HCC1954 cells) [µM] | biological activity (cancer cell lines)
– | – | – | – | – | – | CCCCc1ccc(C(=O)N[C@@H](Cc2ccc(O)cc2)C(=O)NO)cc1 [YSL-99, (S)-4-butyl-N-(1-(hydroxyamino)-3-(4-hydroxyphenyl)-1-oxopropan-2-yl)benzamide] | 42.9 | > 50 | 8.96 | > 50 | 30.9 | 36.2 | > 50 | – | –
– | – | – | – | – | – | CCCCc1ccc(C(=O)N[C@H](Cc2ccccc2)C(=O)NO)cc1 [YSL-106, (R)-4-butyl-N-(1-(hydroxyamino)-1-oxo-3-phenylpropan-2-yl)benzamide] | 26.1 | 21.1 | 4.94 | 21.6 | 11.6 | 18.9 | 12.9 | – | –
0.537 | 4000 | 259000 | 3.59 | 2240 | 5.65 | CCCCc1ccc(C(=O)N[C@@H](Cc2cccc3ccccc23)C(=O)NO)cc1 [YSL-109, (S)-4-butyl-N-(1-(hydroxyamino)-3-(naphthalen-1-yl)-1-oxopropan-2-yl)benzamide] | 3.41 | 32.7 | 3.41 | > 50 | 3.39 | 6.42 | 24.9 | 3.77 | –
– | – | – | – | – | – | CCCCc1ccc(C(=O)N[C@@H](Cc2ccc3ccccc3c2)C(=O)NO)cc1 [YSL-112, (S)-4-butyl-N-(1-(hydroxyamino)-3-(naphthalen-2-yl)-1-oxopropan-2-yl)benzamide] | 7.62 | 46.5 | 7.27 | > 50 | 10.8 | 21.4 | 31.9 | – | –
– | – | – | – | – | – | CCCCc1ccc(C(=O)N[C@@H](Cc2ccc(F)cc2)C(=O)NO)cc1 [YSL-116, (S)-4-butyl-N-(3-(4-fluorophenyl)-1-(hydroxyamino)-1-oxopropan-2-yl)benzamide] | 18 | 44.2 | 27.9 | > 50 | 18 | 19.6 | 38.9 | – | –
– | – | – | – | – | – | CCCCc1ccc(C(=O)N[C@@H](Cc2ccc(I)cc2)C(=O)NO)cc1 [YSL-121, (S)-4-butyl-N-(1-(hydroxyamino)-3-(4-iodophenyl)-1-oxopropan-2-yl)benzamide] | 8.49 | > 50 | > 50 | > 50 | 41.1 | 1.41 | > 50 | – | –
– | – | – | – | – | – | CCCCc1ccc(C(=O)N[C@@H](Cc2ccc([N+](=O)[O-])cc2)C(=O)NO)cc1 [YSL-125, (S)-4-butyl-N-(1-(hydroxyamino)-3-(4-nitrophenyl)-1-oxopropan-2-yl)benzamide] | 14.8 | 8.02 | 16.6 | 42.5 | 15.7 | 6.5 | 10.5 | – | –
– | – | – | – | – | – | CCCCc1ccc(C(=O)N[C@H](C(=O)NO)c2ccccc2)cc1 [YSL-129, (S)-4-butyl-N-(2-(hydroxyamino)-2-oxo-1-phenylethyl)benzamide] | > 50 | > 50 | > 50 | > 50 | > 50 | > 50 | > 50 | – | did not show biological activity
